Experimental data taken from PMC12518693, “Potent Fluorescent Probe for Target‐Engagement Studies of Allosteric Pyruvate Kinase Modulators” (Angewandte Chemie (International Ed. in English), 2025).
Marks after values point to notes of the source that are not given here.

Key:
PKM2 [1] = target: T1, PKM2 (Homo sapiens, UniProt P14618); experiment: Recombinant PKM2 activity assay (Kinase-Glo MAX); assay type: biochemical; design: made in house; conditions: for PKM2 E max: recombinant PKM2; for EC50: recombinant PKM2 10 nM, 15 min pre-incubation, PEP 0.1 mM, ADP 0.2 mM
Experimental: As these compounds were binding to a known allosteric site on PK, the effects of ligands I–IV on the enzymatic activities of PKL and PKM2 were determined (Figure S2). The two isozymes were incubated with increasing concentrations of compounds before the addition of substrates PEP and adenosine diphosphate (ADP), and the reactions were monitored using a Kinase‐Glo MAX assay.
(§1) Figure S2. Effects of ligands I-IV on recombinant PK activities. PKL or PKM2 (10 nM) were pre-incubated with the compounds (0-100 µM) for 15 min following the addition of PEP (0.1 mM) and ADP (0.2 mM). The reactions were terminated by the addition of Kinase Glo-MAX reagent after 10 min, and the luminescence from each reaction was quantified using a plate reader. The activity values are expressed as a percentage of PK activity of the DMSO control. The potencies were calculated by best fit of the Hill equation to the luminescence data.^[2] (A) PKL titrations. (B) PKM2 titrations. Error bars represent the ±SE of replicates (n = 3).

PKM2 [2] = target: T1, PKM2; experiment: Surface plasmon resonance, PKM2; conditions: for K D (SPR, PKM2): 20 °C
PKL [3] = target: T2, PKL (Homo sapiens, UniProt P30613); experiment: Surface plasmon resonance, PKL; conditions: for koff: read-out: k off SPR (PKL); for kon: read-out: k on SPR (PKL)
Experimental: The surface was washed with 10 mM NaOH, 1M NaCl followed by immobilization of protein before subsequent deactivation by 1 M ethanolamine. Immobilization levels were typically 12000-16000 RU. The reference spot was treated as described, omitting the injection of PKL. Compound concentration series was injected over the immobilized protein in increasing concentrations using multi cycle (MCK) or single cycle kinetics (SCK) in running buffer (10 mM HEPES, 150 mM NaCl, 0.05% Tween20, 0.3% DMSO, pH 7.4). A 1:1 Langmuir interaction model is fitted to the experimental traces, enabling determination of kon, koff and Kd.

Solubility = assay type: physicochemical
PKL [4] = target: T2, PKL; experiment: Recombinant PKL activity assay (Kinase-Glo MAX); assay type: biochemical; design: co-crystallisation of full-length PKL (including the B-domain); 8xHis (TEV-cleavable) (N, cleaved yes); made in house; host or cells: E. coli T7 Express (NEB), pExp-NHis plasmid; conditions: for EC50: recombinant PKL 10 nM, 15 min pre-incubation, PEP 0.1 mM, ADP 0.2 mM; for PKL E max: recombinant PKL, above 100% activation, below 100% inhibition
Experimental: The two isozymes were incubated with increasing concentrations of compounds before the addition of substrates PEP and adenosine diphosphate (ADP), and the reactions were monitored using a Kinase‐Glo MAX assay.
as §1, with “Effects of ligands I-IV on recombinant PK activities. PKL or PKM2 (10 nM) were pre-incubated with the compounds (0-100 µM) for 15 min following the addition of PEP (0.1 mM) and ADP (0.2 mM).” left out
The reaction mixture contained 0.2 mM ADP, 0.1 mM PEP, 5 nM PKL, 1% DMSO, and test compounds at concentrations ranging from 0 to 1 mM across 12 titration points. Prior to substrate addition, PKL and test compounds were pre-incubated for 15 minutes.
After the reaction, 5 µL of Kinase-Glo Max reagent was added to each well. […] For each data set, luminescence from the DMSO control was set as 100% activity, and luminescence from the protein blank (no PKL) as 0% activity. Percentage activity (E%) was calculated using the equation: […]
Titration data was fitted to the Hill equation in Origin to determine EC₅₀ values.

PKL [5] = target: T2, PKL; experiment: HepG2 PKM2 KO cell lysate PKL activity assay; conditions: HepG2 PKM2 KO cells, 48 h, mean ± SE n=3
Experimental: These predominantly express PKL.
HepG2 PKM2 KO cells (Synthego) were plated in 6 well plates at cell densities of 2 x 10^5 cells/well and incubated for 24 h at 37 °C and 5% CO2. Compounds were added to the cells in different concentrations (0.1, 1, 10 µM) and the cells were further incubated for 48 h. The control cells received DMSO as vehicle.
Cells were washed with PBS, lysed on ice with 200 µL/well PK assay buffer. […] Pyruvate kinase (PK) activity of the cell lysates (10 µg total protein) was analyzed by using the PK assay kit from abcam (ab83432) according to manufacturer´s instructions. The PKL activity in the cell lysates treated with the compounds was expressed as a percentage of the PK activity in the vehicle.

PKLwt = PKLwt (Homo sapiens, UniProt P30613); experiment: Fluorescence indicator displacement (FID) competition assay
Experimental: Additionally, we performed fluorescence competition assays with these competitors against IV, using recombinant PKLwt (Figure 6b). […] A combined 2x PKL-tracer IV solution was prepared in Tris-HCl buffer containing 1% DMSO, with final concentrations of 0.2 µM PKL and 0.1 µM tracer IV.

PKLNluc = PKLNluc (Homo sapiens, UniProt P30613); experiment: Live-cell NanoBRET assay in HEK293 cells; assay type: cell-based; design: host or cells: HEK293, transient transfection; conditions: 20 nM tracer IV
Experimental: To investigate the intracellular interaction of tracer IV with PKLNluc, we prepared a mammalian expression construct, fusing Nluc to the N‐terminus of PKL. […] As a negative control for NanoBRET experiments, a construct expressing Nluc alone (without PKL) was also prepared.
Additionally, cell viability assays were conducted on cells transfected with either PKLNluc or Nluc plasmids and incubated with tracer IV (Figure S4b,c).
HEK293 cells were passed one day before transfection. The concentration of cells was adjusted to 2x10^5 cells/ml in Opti-MEM™ without phenol red (Invitrogen) supplemented with 1% FBS (Hyclone). Cells (4x10^6) were reversed transfected with 1 µg of PKLNluc plasmid or 1 µg Nluc plasmid and 9 µg of carrier DNA (Promega) using 30 µL of Fugene HD transfection reagent (Promega). […] Work solutions (100x) of tracer IV were prepared from DMSO stocks and further diluted to 20x concentrations with Tracer buffer (Promega). Twenty-five hours after transfection, the cells were treated with 5 µL/well of each of 20x concentrations of the tracer (final concentrations in the assay were in the range 0.001-1 µM, depending on the experiment). Thereafter, 10 µL of 10x solutions of competitors (diluted in Opti-MEM™ medium from stocks of 100x prepared in DMSO) were added to some sets of cells, while the other set received only Opti-MEM™ containing 1% DMSO. The cells were incubated for 2 h at 37°C (5% CO2). […] For each sample well, BRET ratios were calculated using the following formula:
BRET ratio mBU= AcceptorSDonorS-AcceptorNTDonorNT
Where AcceptorS is the luminescence intensity of the sample well at 550 nm, DonorS is the luminescence of the sample well at 450 nm, and AcceptorNT and DonorNT are the luminescence of the no-tracer control at 550 nm and 450 nm respectively.

[6] = K D SPR (PKL), 20 °C, mean ± SE n=3

T1 sequence (P14618 whole entry): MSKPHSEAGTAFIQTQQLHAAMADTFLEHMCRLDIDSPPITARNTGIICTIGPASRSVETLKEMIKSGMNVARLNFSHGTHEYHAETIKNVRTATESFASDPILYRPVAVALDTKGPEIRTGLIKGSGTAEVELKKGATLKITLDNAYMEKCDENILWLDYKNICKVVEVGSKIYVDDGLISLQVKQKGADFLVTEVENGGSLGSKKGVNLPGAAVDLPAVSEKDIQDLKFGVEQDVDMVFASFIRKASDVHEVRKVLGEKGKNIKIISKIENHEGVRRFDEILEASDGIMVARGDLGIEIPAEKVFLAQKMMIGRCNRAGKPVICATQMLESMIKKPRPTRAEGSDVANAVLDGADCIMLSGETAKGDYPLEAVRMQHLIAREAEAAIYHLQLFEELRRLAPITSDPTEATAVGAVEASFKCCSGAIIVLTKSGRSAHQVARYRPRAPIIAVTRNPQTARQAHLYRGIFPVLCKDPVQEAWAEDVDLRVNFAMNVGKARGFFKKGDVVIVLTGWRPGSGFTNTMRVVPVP
T2 sequence (P30613 1-543 isoform P30613-2): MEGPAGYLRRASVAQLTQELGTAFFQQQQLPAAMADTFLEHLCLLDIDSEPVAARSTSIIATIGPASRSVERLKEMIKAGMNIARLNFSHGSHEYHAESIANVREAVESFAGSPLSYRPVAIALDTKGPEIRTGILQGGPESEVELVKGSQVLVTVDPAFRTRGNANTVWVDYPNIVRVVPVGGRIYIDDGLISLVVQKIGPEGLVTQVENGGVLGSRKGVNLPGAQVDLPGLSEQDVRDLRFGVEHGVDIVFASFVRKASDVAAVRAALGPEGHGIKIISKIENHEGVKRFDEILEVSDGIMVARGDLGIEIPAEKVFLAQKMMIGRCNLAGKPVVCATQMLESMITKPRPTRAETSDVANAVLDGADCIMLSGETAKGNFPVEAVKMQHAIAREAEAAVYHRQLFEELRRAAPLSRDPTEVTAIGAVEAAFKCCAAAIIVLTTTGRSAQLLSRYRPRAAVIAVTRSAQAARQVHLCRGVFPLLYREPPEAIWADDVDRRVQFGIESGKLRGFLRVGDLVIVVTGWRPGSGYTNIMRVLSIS
PKLNluc, sequence (P30613 1-543 isoform P30613-2): as above
PKLwt, sequence (P30613 1-543 isoform P30613-2): as above

PKM2 E max (PKM2 [1]) | EC50 (PKM2 [1]) [µM] | Kd (PKM2 [2]) [µM] | K D (SPR, PKM2) (PKM2 [2]) | Kd (PKL [3]; [6]) [µM] | solubility (Solubility) | EC50 (PKL [4]) [µM] | PKL E max (PKL [4]) | PKL activities (% of vehicle) 0.1 µM (PKL [5]) | PKL activities (% of vehicle) 1 µM (PKL [5]) | PKL activities (% of vehicle) 10 µM (PKL [5]) | koff (PKL [3]) [s⁻¹] | kon (PKL [3]) [M⁻¹ s⁻¹] | SMILES | also measured
323 % of vehicle | > 10 | > 100 | no detectable binding | > 100 | poor | 86 | 50 ^a) % vehicle | – | – | – | – | – | CN(C)c1ccc(S(=O)(=O)c2ccc3c(=O)n(CC(C)(C)C)ncc3c2)c2nonc12 [Compound III, 6-((7-(Dimethylamino)benzo[c][1,2,5]oxadiazol-4-yl)sulfonyl)-2-neopentylphthalazin-1(2H)-one] | K D SPR (PKL) (PKL [3]; 20 °C, mean ± SE n=3): no binding; effect on PKL at higher concentrations (PKL [4]; >50 µM): weak inhibition
596 % of vehicle | 0.025 | 0.033 ± 0.001 | – | 0.133 ± 0.008 | – | 0.015 | 162 % vehicle | 115 ± 2 % of vehicle | 189 ± 3 % of vehicle | 330 ± 3 % of vehicle | 0.00533 | 41200 | O=c1c2ccc(S(=O)(=O)c3ccccc3)cc2cnn1Cc1ccccc1 [Compound I, 2-Benzyl-6-(phenylsulfonyl)phthalazin-1(2H)-one, reference compound] | koff (PKM2 [2]; read-out: k off SPR (PKM2)): < 0.00055 s⁻¹; kon (PKM2 [2]; read-out: k on SPR (PKM2)): 4500 M⁻¹ s⁻¹
– | – | – | – | – | – | – | – | – | – | – | – | – | Nc1cccc(S(=O)(=O)N2CCCN(S(=O)(=O)c3ccc4c(c3)OCCO4)CC2)c1 [DASA-58, reference compound] | EC50 (PKLwt): 0.394 µM; Kd (PKLwt): 0.179 µM; Kd (PKL [3]; K D (SPR, PKL), 20 °C, recombinant PKL): 0.17 µM; EC50 (PKLNluc; 2 h 37 °C, live HEK293, Figure 6a, read-out: EC50 displacement of tracer IV): 0.512 µM; Kd (PKLNluc; Figure 6, read-out: K D (cell), Cheng–Prusoff corrected): 0.245 µM
572 % of vehicle | – | > 100 | no detectable binding | 36.2 ± 0.289 | poor | 0.7 | 120 % vehicle | 112 ± 1 % of vehicle | 126 ± 1 % of vehicle | 133 ± 6 % of vehicle | 0.00833 | 167 | CN(C)c1ccc(S(=O)(=O)c2ccc3c(=O)n(Cc4ccccc4)ncc3c2)c2nonc12 [Compound II, 2-Benzyl-6-((7-(dimethylamino)benzo[c][1,2,5]oxadiazol-4-yl)sulfonyl)phthalazin-1(2H)-one] | weaker PKL affinity relative to compound I (PKL [3]; SPR K D ratio): 250 fold
